Reference: the supplement of paper PMC10307832

Key:
Assay in all cases: relative viability (nuclei count vs DMSO), 5 days (fraction); higher = more cells survive
Fedratinib + Tozasertib = compound: Cc1cnc(Nc2ccc(OCCN3CCCC3)cc2)nc1Nc1cccc(S(=O)(=O)NC(C)(C)C)c1 [Fedratinib] + Cc1cc(Nc2cc(N3CCN(C)CC3)nc(Sc3ccc(NC(=O)C4CC4)cc3)n2)n[nH]1 [Tozasertib] (partner 0.1 µM)
In short: (§1)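 Lung cancer cell lines were pin-tool dosed in 1536-well plates on the day after seeding, with either a lone drug or a fixed anchor-drug dose plus five library-drug doses (not always all listed) in √10 steps. Nuclei were counted on 4× images after 5 days. Relative viability is the ratio of treated-well to vehicle-well nuclei counts, with each value a median of duplicate plates.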

Fedratinib + Pemetrexed = compound: Cc1cnc(Nc2ccc(OCCN3CCCC3)cc2)nc1Nc1cccc(S(=O)(=O)NC(C)(C)C)c1 [Fedratinib] + Nc1nc2[nH]cc(CCc3ccc(C(=O)N[C@@H](CCC(=O)O)C(=O)O)cc3)c2c(=O)[nH]1 [Pemetrexed] (partner 0.2 µM)
In short: as §1

GW-2580 + Navitoclax = compound: COC1=CC=C(C=C1)COC2=C(C=C(C=C2)CC3=CN=C(N=C3N)N)OC [GW-2580] + CC1(C)CCC(c2ccc(Cl)cc2)=C(CN2CCN(c3ccc(C(=O)NS(=O)(=O)c4ccc(N[C@H](CCN5CCOCC5)CSc5ccccc5)c(S(=O)(=O)C(F)(F)F)c4)cc3)CC2)C1 [Navitoclax] (partner 0.5 µM)
In short: as §1

GW-2580 + Dasatinib = compound: COC1=CC=C(C=C1)COC2=C(C=C(C=C2)CC3=CN=C(N=C3N)N)OC [GW-2580] + Cc1nc(Nc2ncc(C(=O)Nc3c(C)cccc3Cl)s2)cc(N2CCN(CCO)CC2)n1 [Dasatinib] (partner 0.075 µM)
In short: as §1

Fedratinib + Phenformin = compound: Cc1cnc(Nc2ccc(OCCN3CCCC3)cc2)nc1Nc1cccc(S(=O)(=O)NC(C)(C)C)c1 [Fedratinib] + N=C(N)NC(=N)NCCc1ccccc1 [Phenformin] (partner 250 µM)
In short: as §1

| Cell Line | relative viability (Fedratinib + Tozasertib; first compound 0.1 µM) | relative viability (Fedratinib + Tozasertib; first compound 0.3162 µM) | relative viability (Fedratinib + Tozasertib; first compound 1 µM) | relative viability (Fedratinib + Pemetrexed; first compound 0.1 µM) | relative viability (Fedratinib + Pemetrexed; first compound 0.3162 µM) | relative viability (Fedratinib + Pemetrexed; first compound 1 µM) | relative viability (GW-2580 + Navitoclax; first compound 0.08 µM) | relative viability (GW-2580 + Navitoclax; first compound 0.8 µM) | relative viability (GW-2580 + Navitoclax; first compound 2.53 µM) | relative viability (GW-2580 + Navitoclax; first compound 8 µM) | relative viability (GW-2580 + Dasatinib; first compound 0.08 µM) | relative viability (GW-2580 + Dasatinib; first compound 0.8 µM) | relative viability (GW-2580 + Dasatinib; first compound 2.53 µM) | relative viability (GW-2580 + Dasatinib; first compound 8 µM) | relative viability (Fedratinib + Phenformin; first compound 0.1 µM) | relative viability (Fedratinib + Phenformin; first compound 0.3162 µM) | relative viability (Fedratinib + Phenformin; first compound 1 µM) |
| --- | --- | --- | --- | --- | --- | --- | --- | --- | --- | --- | --- | --- | --- | --- | --- | --- | --- |
| 201T | 0.609 | 0.904 | 0.874 | 0.332 | 0.336 | 0.314 | 1.24 | 1.25 | 1.23 | 1.2 | 0.637 | 0.544 | 0.509 | 0.532 | 0.429 | 0.478 | 0.414 |
| A549 |  |  |  |  |  |  | 1.38 | 1.25 | 1.12 | 0.918 |  |  |  |  |  | 0.169 | 0.165 |
| A-427 | 0.183 | 0.194 | 0.16 | 0.97 | 0.848 | 0.939 | 1.02 | 1.1 | 0.838 | 0.856 | 0.758 | 0.794 | 0.511 | 0.735 | 0.26 | 0.298 | 0.147 |
| ABC-1 | 0.179 | 0.146 | 0.138 |  |  |  |  |  |  |  | 0.559 | 0.675 | 0.55 | 0.534 | 0.265 | 0.23 | 0.209 |
| BEN | 0.507 | 0.464 | 0.45 | 0.653 | 0.755 | 0.669 | 0.0663 | 0.486 | 0.0634 | 0.0526 | 0.267 | 0.397 | 0.222 | 0.308 | 0.251 | 0.231 | 0.292 |
| CAL-12T | 0.285 | 0.304 | 0.322 | 1.02 | 1.2 | 1.31 | 1.27 |  | 1.22 | 1.34 | 0.485 | 0.443 | 0.438 | 0.505 | 0.597 | 0.611 | 0.526 |
| COR-L23 | 0.103 | 0.186 | 0.168 | 0.177 | 0.218 | 0.184 | 1.32 | 1.17 | 1.14 | 1.11 | 0.566 | 0.502 | 0.519 | 0.464 | 0.438 | 0.412 | 0.442 |
| COR-L 105 | 0.362 | 0.361 | 0.338 | 0.96 | 1.1 | 0.827 | 0.813 | 0.814 | 0.72 | 0.751 | 0.314 | 0.373 | 0.28 | 0.342 | 0.398 | 0.429 | 0.433 |
| Calu-6 |  |  |  |  |  |  | 0.932 | 0.868 | 0.782 | 0.877 |  |  |  |  |  |  |  |
| ChaGo-K-1 | 0.213 | 0.245 | 0.217 | 0.273 | 0.254 | 0.253 | 1.04 | 1.34 | 0.926 | 1.01 | 0.663 | 0.552 | 0.605 | 0.587 | 0.436 | 0.432 | 0.445 |
| EBC-1 |  |  |  |  |  |  | 0.418 | 0.37 | 0.369 | 0.37 |  |  |  |  |  |  |  |
| EKVX | 0.359 | 0.343 | 0.407 | 0.377 | 0.431 | 0.392 | 0.977 | 1.03 | 0.732 | 0.925 | 0.613 | 0.655 | 0.431 | 0.527 | 0.251 | 0.265 | 0.246 |
| EMC-BAC-2 | 0.201 | 0.268 | 0.227 | 0.425 | 0.481 | 0.39 | 1.18 | 1.39 | 1.07 | 1.2 | 0.317 | 0.308 | 0.264 | 0.316 | 0.404 | 0.523 | 0.421 |
| EPLC-272H | 0.178 | 0.318 | 0.251 | 0.389 | 0.272 | 0.343 | 1.18 | 1.08 | 1.11 | 1.11 | 0.353 | 0.385 |  | 0.283 | 0.3 | 0.32 | 0.173 |
| H3255 | 0.578 | 0.537 | 0.655 | 0.531 | 0.559 | 0.563 | 0.5 | 0.633 | 0.4 | 0.452 | 0.287 | 0.436 | 0.345 | 0.281 | 0.377 | 0.362 | 0.418 |
| HARA | 0.107 | 0.105 | 0.0905 | 0.253 | 0.259 | 0.185 | 1.15 | 1.18 | 1.28 | 0.896 | 0.276 | 0.253 | 0.261 | 0.0615 | 0.364 | 0.448 | 0.411 |
| HCC-15 | 0.165 | 0.339 | 0.341 | 0.212 | 0.225 | 0.202 | 0.751 | 0.79 | 0.656 | 0.712 | 0.639 | 0.73 | 0.629 | 0.578 | 0.43 | 0.464 | 0.399 |
| HCC-44 | 0.258 | 0.843 | 0.805 | 0.646 | 0.638 | 0.68 | 1.09 | 1.03 | 0.97 | 0.897 |  |  |  |  | 0.123 | 0.293 | 0.163 |
